Test results as given in US6617355B1, “Treating asthma by preventing and/or accomodating S-nitrosothiol breakdown” (The University of Virginia Patent Foundation, priority 1997, dated 2003).

Legend:
[1] = tested on: patient with severe asthma; experiment: Treatment of patients with severe asthma or respiratory failure (Examples I-IX); type: in vivo, human
Description: A child with severe asthma developing symptoms of dyspnea, tachypnea, wheezing and cough is administered a 50 mM solution of L-gamma-glutamyl-(o-carboxy)phenylhydrazide as an aerosol via inhalation at a dosage of 0.01 ml/kg.
A person with severe asthma with symptoms of dyspnea on exertion, cough and prolonged expiration is administered a 10 mM solution of bathocuproine disulfonate via inhalation as an aerosol at a dose of 0.01 ml/kg.
A person with severe asthma with chronic symptoms of night-time cough, dyspnea and wheezing is maintained on inhalations of an aerosol of a 10 mM solution of each of S-nitrosoglutathione and aurothioglucose, at a dosage of 0.01 ml/kg.
A child with severe asthma and impending respiratory failure with symptoms of wheezing, cough and cyanosis is given terbutaline (5 μg/kg/min) by continuous IV-infusion. […] The terbutaline is replaced with an equimolar amount of terbutaline substituted with S-nitrosothiol group.
A person has respiratory failure with symptoms of wheezing, cough and cyanosis.
A person with respiratory failure with symptoms as described in Example V is given inhalation of a 10 mmol solution of S-nitroso-D-cysteine, 0.01 ml/kg.
A severe asthmatic with chronic dyspnea is given 30 mg daily prednisone.
A severe asthmatic is treated with inhalation of 1 mg allopurinol.
A severe asthmatic is treated with inhalation of a 10 mM solution of each of S-nitrosomethylmercaptan and ethacrynic acid, at a dosage of 0.01 ml/kg.

[2] = tested on: patients with mild or moderate asthma; experiment: Treatment of patients with mild or moderate asthma (Examples X-XI); type: in vivo, human
Description: A child wakes up every night coughing and coughs on exertion. The patient is given inhalations of 0.01 ml/kg of a 10 mM solution of S-nitroso-D-cysteine.

[3] = tested on: Guinea-pig tracheal rings; experiment: Relaxation of methacholine-contracted guinea-pig tracheal rings by S-nitrosoglutathione pre-incubated with or without lung fractions; type: cell-based; conditions: n=7
Description: Guinea-pig tracheal and lung parenchymal tissue were separately homogenized in 1 mM ethylenediaminetetraacetic acid, 50 mM TRIS HC1 buffer, pH 7.4, 10 mg/liter soybean trypsin inhibitor, 10 mg/liter pepstatin, 10 mg/liter chymostatin and 100 mg/liter phenylmethylsulfonyl fluoride at 4° C. and underwent centrifugation (5,000 g; 5 min) and filtration. The supernatant was loaded onto a DEAE cellulose column and eluted with a linear gradient of 0-250 mM NaCl. The S-nitrosoglutathione degrading activity was assayed as NO evolution. The results are depicted in FIG. 1 (fractions causing a net loss of NO are represented by diamonds).
Guinea-pig tracheal rings were suspended in Krebs-Henseleit buffer (pH 7.4, 37 degrees C., equilibrated with 95% oxygen/5% carbon dioxide) and equilibrated under one gram tension. Smooth muscle contraction was monitored using a force transducer. After contraction with 5 μM methacholine, rings were exposed to S-nitrosoglutathione which had been incubated (30 minutes, pH 7.4, 25 degrees C.) (a) in phosphate buffered saline alone, (b) with guinea-pig lung protein fractions having S-nitroglutathione breakdown activity isolated as described in Background Example 2, and (c) with active lung fractions and 100 μM aurothioglucose. […]

NC(CCC(=O)NNc1ccccc1C(=O)O)C(=O)O [L-gamma-glutamyl-(o-carboxy)phenylhydrazide]
asthma symptoms ([1]; Example I: child, severe asthma, 50 mM solution as aerosol via inhalation, 0.01 ml/kg): symptoms improve

N[C@H](CSN=O)C(=O)O [S-nitroso-D-cysteine]
asthma symptoms ([1]; Example VI: person, respiratory failure, inhalation of 10 mmol solution, 0.01 ml/kg): Improvement occurs | asthma symptoms ([2]; Example X: child, night cough and cough on exertion, inhalations of 0.01 ml/kg of 10 mM solution): sleeps through the night and is able to participate in sports without shortness of breath

N[C@@H](CCC(=O)N[C@@H](CSN=O)C(=O)NCC(=O)O)C(=O)O [S-nitrosoglutathione]
relaxation of tracheal rings by S-nitrosoglutathione after incubation with active lung fractions ([3]; rings contracted with 5 μM methacholine, S-nitrosoglutathione incubated 30 minutes, pH 7.4, 25 degrees C with guinea-pig lung protein fractions, p<0.005 for all concentrations >500 nM): relaxation was nearly completely inhibited

N[C@H](C(=O)O)[C@@H]1CC(Cl)=NO1 [acivicin]
asthma symptoms ([1]; Example V: person, respiratory failure, parenteral methylprednisone 4 mg/kg and terbutaline 5 μg/kg/min, then nebulized acivicin 0.01 mmol/kg): symptoms improve | asthma symptoms ([2]; Example XI: person, wheezing and coughing three times a year, nebulized 0.01 mmol/kg): becomes asymptomatic

Oc1ncnc2[nH]ncc12 [allopurinol]
asthma symptoms ([1]; Example VIII: severe asthmatic, inhalation of 1 mg): Symptoms improve

OC[C@H]1O[C@H]([S-])[C@H](O)[C@@H](O)[C@@H]1O.[Au+] [aurothioglucose]
restoration of S-nitrosoglutathione relaxation by inhibitor of breakdown ([3]; S-nitrosoglutathione incubated with active lung fractions and 100 μM aurothioglucose, p<0.001 at 50 μM): partially restored

Cc1cc(-c2ccc(S(=O)(=O)O)cc2)c2ccc3c(-c4ccc(S(=O)(=O)O)cc4)cc(C)nc3c2n1 [bathocuproine disulfonate]
asthma symptoms ([1]; Example II: person, severe asthma, 10 mM solution via inhalation as aerosol, 0.01 ml/kg): symptoms improve

CC(C)(C)NCC(O)c1cc(O)cc(O)c1 (stereo not shown) [terbutaline]
asthma symptoms ([1]; Example IV: child, severe asthma, impending respiratory failure, continuous IV-infusion 5 μg/kg/min or equimolar amount): No improvement occurs
